In ChEMBL document CHEMBL6134786, “Design and synthesis of novel 8-(azaindolyl)-benzoazepinones as potent and selective ROCK inhibitors” (RSC Med Chem, 2024):
≈ marks a conversion by molar mass, not a printed value.

What was measured:
cells = conditions: Homo sapiens, Pulmonary Artery Smooth Muscle Cells, read-out: pEC50 (converted)
[1] = Kinetic solubility of the compound in PBS at pH 7.2; format: physicochemical; conditions: read-out: Kinetic_solubility
[2] = Metabolic stability in rat microsomes assessed as half life; format: ADME, Microsome
[3] = Apparent permeability across apical to basolateral side in human Caco-2 cells; format: ADME, cell-based

Compound | EC50 (cells) [nM] | solubility kinetic [1] [µM] | half-life [2] [min] | Papp A→B [3] [×10⁻⁶ cm/s]
O=C1Cc2cc(-c3cn[nH]c3)ccc2CCN1c1ccccc1 | 398 | – | – | –
O=C1Cc2cc(-c3ccnc4[nH]ccc34)ccc2CCN1c1ccccc1 | 12.6 | < 5 | 18 | 26.9
O=C1Cc2cc(-c3ncnc4[nH]ccc34)ccc2CCN1c1ccccc1 | 50.1 | – | – | –
COc1cccc(N2CCc3ccc(-c4ccnc5[nH]ccc45)cc3CC2=O)c1 | 31.6 | – | – | –
CN1CCN(CCCOc2cccc(N3CCc4ccc(-c5ccnc6[nH]ccc56)cc4CC3=O)c2)CC1 | 5.01 | – | 8.4 | 5.6
O=C1CCc2ccc(-c3ccnc4[nH]ccc34)cc2CN1c1ccccc1 | – | 131 (≈ 46.3 µg/mL) | – | –
Nc1cc(-c2ccc3c(c2)CC(=O)N(c2ccccc2)CC3)ccn1 | 316 | – | – | –
